Read-outs that look alike come from different tables or passages of the source.
Key:
[1] = system: P-388 (murine lymphocytic leukaemia); assay: SRB cytotoxicity assay, P-388 cells; assay type: cell-based; conditions: Mus musculus, read-out: IC50 P-388
Experimental: (§1) The methanol extracts and the isolated compounds were evaluated for their cytotoxic activities against several cell lines, including murine lymphocytic leukaemia (P-388), human oral epidermoid carcinoma (KB), human colon carcinoma (Col-2 and HT-29), human breast cancer (MCF-7), human lung carcinoma (Lu-1 and A549), rat glioma (ASK), and noncancerous human embryonic kidney cell (HEK-293) by sulforhodamine B (SRB) assay in 96-well microtiter plates (Skehan et al. [1990]). This method measures the cellular protein content of cultures in 96-well microtiter plates. The cell lines were seeded into 96-well microtiter plates and treated with the test compounds at concentrations of 0.16–20 µg/mL for 72 h, except for the P-388 cells, which were treated for 48 h. Then the cell cultures were fixed with 20% trichloroacetic acid (Merck) and stained with 0.4% SRB (Sigma-Aldrich) dissolved in 1% acetic acid (Merck) for 1 h. The cellular-protein-bound dye was extracted with 10 mM unbuffered Trisbase solution (pH 10.5) (Sigma-Aldrich) for the determination of optical density at 510 nm with a microtiter plate reader (Thermo Scientific™ Multiskan™ GO Microplate Spectrophotometer). The cytotoxic potency was expressed as median inhibition concentrations (IC50), the concentration that inhibits 50% of cell viability (µg/mL and µM). The IC50 values were determined from the nonlinear regression curve fit in GraphPad Prism software (version 5). Ellipticine (Sigma-Aldrich), a cytotoxic plant alkaloid causing topoisomerase II inhibition and DNA intercalation, was used as a positive control.

[2] = system: KB (human oral epidermoid carcinoma); assay: SRB cytotoxicity assay, KB cells; assay type: cell-based; conditions: 72 h, read-out: IC50 KB
Experimental: as §1

[3] = system: HT-29 (human colon carcinoma); assay: SRB cytotoxicity assay, HT-29 cells; assay type: cell-based; conditions: read-out: IC50 HT-29
Experimental: as §1

[4] = system: MCF-7 (human breast cancer); assay: SRB cytotoxicity assay, MCF-7 cells; assay type: cell-based; conditions: read-out: IC50 MCF-7
Experimental: as §1

[5] = system: A549 (human lung carcinoma); assay: SRB cytotoxicity assay, A549 cells; assay type: cell-based; conditions: read-out: IC50 A549
Experimental: as §1

ASK (rat glioma) = assay: SRB cytotoxicity assay, ASK cells; assay type: cell-based; conditions: 72 h, read-out: IC50 ASK
Experimental: as §1

[6] = system: Hek-293 (noncancerous human embryonic kidney cell); assay: SRB cytotoxicity assay, Hek-293 cells; assay type: cell-based; conditions: read-out: IC50 Hek-293
Experimental: as §1

[7] = system: P-388, KB, HT-29, MCF-7, A549, ASK and Hek-293 cells; assay: SRB cytotoxicity assay, panel of tested cell lines (summary statements); assay type: cell-based
Experimental: as §1

[8] = P388, SRB assay, 0.16–20 µg/mL, 48 h
[9] = HT-29, SRB assay, 0.16–20 µg/mL, 72 h
[10] = MCF7, SRB assay, 0.16–20 µg/mL, 72 h
[11] = A549, SRB assay, 0.16–20 µg/mL, 72 h
[12] = Homo sapiens, HEK293, 72 h, SRB assay, non-cancerous cells, 0.16–20 µg/mL, 72 h
[13] = SRB assay, non-cancerous cells, 0.16–20 µg/mL, 72 h
[14] = read-out: IC50 values, range for some of the tested cells
[15] = read-out: IC50 values, range against all tested cell lines

Row | melting point | SMILES | IC50 [1, 8] | IC50 ([2]; SRB assay, 0.16–20 µg/mL) | IC50 [3, 9] | IC50 [4, 10] | IC50 [5, 11] | IC50 (ASK (rat glioma); SRB assay, 0.16–20 µg/mL) | IC50 [6, 12] | IC50 [6, 13] | IC50 ([7]; P-338, HT-29, MCF-7 and A549, read-out: IC50 values, range over four tested cell lines) | IC50 [7, 14] | IC50 ([1]; P388, 48 h) | IC50 [2] | IC50 ([3]; HT-29, 72 h) | IC50 ([4]; MCF7, 72 h) | IC50 ([5]; A549, 72 h) | IC50 (ASK (rat glioma)) | IC50 ([6]; Homo sapiens, HEK293, 72 h) | IC50 [7, 15]
1 | – | Cc1c2ccncc2c(C)c2c1[nH]c1ccccc12 [Ellipticine, reference compound] | 2.03 ± 0.08 µM | 2.36 ± 0.04 µM | 2.4 ± 0.04 µM | 2.15 ± 0.08 µM | 2.64 ± 0.24 µM | 2.56 ± 0.04 µM | 2.68 ± 0.08 µM | – | – | – | – | – | – | – | – | – | – | –
2 | – | COc1cc(C2OCC3C(c4ccc(OC)c(OC)c4)OCC23)ccc1O (single isomer, unassigned; (-)) [Compound 2, (–)-phylligenin] | 32.5 ± 2.04 µM | > 20 µM | > 20 µM | 36.1 ± 1.02 µM | > 20 µM | > 20 µM | > 20 µM | – | – | – | – | – | – | – | – | – | – | –
3 | – | COc1cccc2c1C(=O)c1c(C)cc(=O)[nH]c1C2=O [Compound 15, 6-methoxymarcanine A] | 9.55 ± 2.83 µM | 38.1 ± 0.52 µM | 10.15 ± 0.07 µM | 8.33 ± 0.63 µM | 12.3 ± 0.37 µM | 38.7 ± 1.12 µM | > 20 µM | > 20 µM | 8.33 to 12.3 µM | 2.03 to 19.7 µM | – | – | – | – | – | – | – | –
4 | 146 to 148 °C | COc1cc(C2OCC(C(=O)c3ccc(OC)c(OC)c3)C2CO)ccc1O (stereo not drawn) [Compound 6, mitrephoran] | > 20 µM | > 20 µM | > 20 µM | 28.63 ± 0.15 µM | > 20 µM | > 20 µM | > 20 µM | – | – | – | – | – | – | – | – | – | – | –
5 | – | COc1cc(OC)cc(C2OCC3C(c4ccc(OC)c(OC)c4)OCC23)c1 (stereo not drawn) [Compound 8, 2-(3,4-dimethoxyphenyl)-6-(3,5-dimethoxyphenyl)-3,7-dioxabicyclo[3.3.0]octane] | > 20 µM | 15.9 ± 0.36 µM | > 20 µM | 21.9 ± 2.96 µM | > 20 µM | > 20 µM | 16.5 ± 0.94 µM | – | – | – | – | – | – | – | – | – | – | –
6 | – | COc1cc2c(cc1OC)-c1c3c(cc4ccnc(c14)C2=O)OCO3 [Compound 10, dicentrinone] | – | – | – | – | – | – | – | – | – | – | > 20 µM | > 20 µM | > 20 µM | 36.9 ± 1.13 µM | > 20 µM | > 20 µM | > 20 µM | –
7 | – | CC1(C(=O)O)CCCC2(C)C1CC(O)C13CC4C(CC21)C4(C)C3 (stereo not drawn) [Compound 14, ciliaric acid] | > 20 µM | > 20 µM | > 20 µM | > 20 µM | > 20 µM | > 20 µM | > 20 µM | – | – | – | – | – | – | – | – | – | – | –
8 | – | COc1cc(/C=C/C(=O)NCCc2ccc(O)cc2)ccc1O [Compound 9, N-trans-feruloyltyramine] | > 20 µM | > 20 µM | > 20 µM | > 20 µM | > 20 µM | > 20 µM | > 20 µM | – | – | – | – | – | – | – | – | – | – | –
9 | – | COc1ccc(C(=O)[C@H]2CO[C@H](c3ccc(OC)c(OC)c3)[C@H]2CO)cc1OC [Compound 3, magnone A] | 8.96 ± 0.7 µM | 20.6 ± 3.88 µM | 27.6 ± 3.53 µM | 4.4 ± 0.1 µM | 37.9 ± 5.42 µM | > 20 µM | > 20 µM | 23.2 ± 1.17 µM | – | 2.03 to 19.7 µM | – | – | – | – | – | – | – | –
10 | – | COc1cccc2c1-c1c3c(cc4ccnc(c14)C2=O)OCO3 [Compound 11, oxoputerine] | 6.72 ± 0.36 µM | 7.67 ± 0.3 µM | 7.28 ± 0.23 µM | 7.05 ± 0.2 µM | 7.21 ± 0.79 µM | 6.59 ± 0.43 µM | 7.31 ± 0.07 µM | – | – | – | – | – | – | – | – | – | – | 6.59 to 11 µM
11 | – | COc1cc2c(cc1O)-c1cc3ccc(O)c(OC)c3c[n+]1CC2 [Compound 16, stepharanine] | – | – | – | – | – | – | – | – | – | – | > 20 µM | > 20 µM | > 20 µM | > 20 µM | > 20 µM | > 20 µM | > 20 µM | –
12 | – | COc1ccc(C2OCC3C(c4ccc(OC)c(OC)c4)OCC23)cc1OC (single isomer, unassigned; (-)) [Compound 1, (–)-epieudesmin] | > 20 µM | > 20 µM | > 20 µM | > 20 µM | > 20 µM | > 20 µM | > 20 µM | – | – | – | – | – | – | – | – | – | – | –
13 | – | O=C1c2ccccc2-c2c3c(cc4ccnc1c24)OCO3 [Compound 5, liriodenine] | – | – | – | – | – | – | – | – | – | – | 9.6 ± 0.58 µM | 11.02 ± 0.11 µM | 10.6 ± 0.36 µM | 9.2 ± 0.25 µM | 9.45 ± 0.18 µM | 10.7 ± 0.95 µM | 8.07 ± 0.11 µM | 6.59 to 11 µM
14 | – | CCC(CCC(C)C1CCC2C3CC=C4CC(OC5OC(CO)C(O)C(O)C5O)CCC4(C)C3CCC12C)C(C)C (stereo not drawn) [Compound 4, stigma-5-en-3-O-β-glucopyranoside] | > 20 µM | > 20 µM | > 20 µM | > 20 µM | > 20 µM | > 20 µM | > 20 µM | – | – | – | – | – | – | – | – | – | – | –
15 | – | COc1ccc([C@@H]2Oc3c(OC)cc(CCCO)cc3[C@H]2CO)cc1OC [Compound 7, 3′,4-O-dimethylcedrusin] | 25.9 ± 2.99 µM | 2.03 ± 0.11 µM | 19.7 ± 1.52 µM | 3.77 ± 0.05 µM | 10.3 ± 2.49 µM | > 20 µM | 8.48 ± 4.04 µM | – | – | 2.03 to 19.7 µM | – | – | – | – | – | – | – | –
